Reference: patent US9096518B2, “Substituted hydroxamic acids and uses thereof” (Millennium Pharmaceuticals, Inc., priority 2009, dated 2015)

These molecules were tested against T1, purified human HDAC6 (Homo sapiens, UniProt Q9UBN7) (assay: HDAC6 Enzyme Assay).
T1 construct: purchased BPS Bioscience 5006
T1 sequence (Q9UBN7 1-1215): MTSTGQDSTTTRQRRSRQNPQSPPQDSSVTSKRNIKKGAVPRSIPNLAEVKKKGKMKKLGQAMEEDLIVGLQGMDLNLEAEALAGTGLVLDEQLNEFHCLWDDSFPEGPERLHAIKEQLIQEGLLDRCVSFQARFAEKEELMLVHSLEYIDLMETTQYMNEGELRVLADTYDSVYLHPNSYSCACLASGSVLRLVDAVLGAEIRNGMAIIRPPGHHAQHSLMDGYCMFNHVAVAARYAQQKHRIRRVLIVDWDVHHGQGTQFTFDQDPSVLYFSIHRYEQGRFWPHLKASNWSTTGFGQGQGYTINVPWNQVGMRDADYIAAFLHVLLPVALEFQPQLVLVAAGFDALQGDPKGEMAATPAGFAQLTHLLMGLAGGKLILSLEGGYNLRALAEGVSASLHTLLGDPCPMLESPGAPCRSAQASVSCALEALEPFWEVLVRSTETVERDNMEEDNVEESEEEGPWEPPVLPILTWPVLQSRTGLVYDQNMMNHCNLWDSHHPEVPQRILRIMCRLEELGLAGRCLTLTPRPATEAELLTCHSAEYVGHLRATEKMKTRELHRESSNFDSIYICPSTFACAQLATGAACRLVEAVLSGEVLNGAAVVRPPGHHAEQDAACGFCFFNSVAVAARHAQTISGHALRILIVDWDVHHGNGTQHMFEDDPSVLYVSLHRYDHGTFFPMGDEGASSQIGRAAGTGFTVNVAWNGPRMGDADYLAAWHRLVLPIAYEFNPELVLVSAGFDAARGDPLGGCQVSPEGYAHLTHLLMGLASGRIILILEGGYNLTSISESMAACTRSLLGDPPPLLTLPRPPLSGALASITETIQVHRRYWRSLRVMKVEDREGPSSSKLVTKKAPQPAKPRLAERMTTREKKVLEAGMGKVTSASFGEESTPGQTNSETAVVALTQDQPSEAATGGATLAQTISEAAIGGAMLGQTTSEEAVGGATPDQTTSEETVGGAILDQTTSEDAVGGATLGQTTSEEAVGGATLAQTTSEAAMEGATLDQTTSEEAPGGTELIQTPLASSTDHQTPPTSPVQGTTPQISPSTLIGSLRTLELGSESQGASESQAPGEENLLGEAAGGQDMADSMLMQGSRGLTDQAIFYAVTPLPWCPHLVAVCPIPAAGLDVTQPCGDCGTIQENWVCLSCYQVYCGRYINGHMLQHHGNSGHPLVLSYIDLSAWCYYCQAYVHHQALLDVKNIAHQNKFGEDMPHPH
Assay type: biochemical
Method in brief: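 Purified human HDAC6 incubated 1 h at 30 °C with Ac-Arg-Gly-Lys(Ac)-AMC peptide and compound; reaction stopped with trichostatin A, then trypsin releases AMC, read by fluorescence (Ex 340/Em 460 nm). IC50 from concentration-response curves relative to DMSO controls.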

Question: Which IC50 does the source give for `Cn1ccc(C(=O)N2CCCc3cc(C(=O)NO)ccc3C2)n1` [Compound 233, N-hydroxy-2-[(1-methyl-1H-pyrazol-3-yl)carbonyl]-2,3,4,5-tetrahydro-1H-2-benzazepine-7-carboxamide] here?
Answer: The IC50 was over 500 nM.

Question: `O=C(NO)c1ccc2c(c1)CCN(CCOc1ccc(Cl)cc1)C2` [Compound 111, 2-[2-(4-chlorophenoxy)ethyl]-N-hydroxy-1,2,3,4-tetrahydroisoquinoline-6-carboxamide] was tested. Which IC50 did it give?
Answer: The IC50 was 100 to 500 nM.

Question: With `Cc1ccc(CNC(=O)N2CCc3cc(C(=O)NO)ccc3C2)cc1` [Compound 105, N^6-hydroxy-N^2-(4-methylbenzyl)-3,4-dihydroisoquinoline-2,6(1H)-dicarboxamide] as the molecule, how does the IC50 read?
Answer: The IC50 was under 50 nM.

Question: For `O=C(NO)c1ccc2c(c1)CCN(Cc1ccc(OC(F)(F)F)cc1)C2` [Compound 61, N-hydroxy-2-[4-(trifluoromethoxy)benzyl]-1,2,3,4-tetrahydroisoquinoline-6-carboxamide], which IC50 is on record?
Answer: Its IC50 is 100 to 500 nM.

Question: With `O=C(NO)c1ccc2c(c1)CCN(C(=O)CC1CCCC1)C2` [Compound 25, 2-(cyclopentylacetyl)-N-hydroxy-1,2,3,4-tetrahydroisoquinoline-6-carboxamide] as the molecule, how does the IC50 read?
Answer: Its IC50 is under 50 nM.

Question: For `O=C(NO)c1ccc2c(c1)CCN(C(=O)C1(c3ccc(Cl)cc3)CCC1)C2` [Compound 4, 2-{[1-(4-chlorophenyl)cyclobutyl]carbonyl}-N-hydroxy-1,2,3,4-tetrahydroisoquinoline-6-carboxamide], which IC50 is on record?
Answer: The IC50 was under 50 nM.

Question: Which IC50 does the source give for `CCC(C)NC(=O)N1CCc2cc(C(=O)NO)ccc2C1` (stereo not shown) [Compound 93, N^2-(sec-butyl)-N^6-hydroxy-3,4-dihydroisoquinoline-2,6(1H)-dicarboxamide] here?
Answer: Its IC50 is under 50 nM.

Question: How did the IC50 turn out when `CCCS(=O)(=O)N1CCc2cc(C(=O)NO)ccc2C1` [Compound 40, N-hydroxy-2-(propylsulfonyl)-1,2,3,4-tetrahydroisoquinoline-6-carboxamide] was run?
Answer: The IC50 was 100 to 500 nM.

Question: How did the IC50 turn out when `Cc1cc(C(F)(F)F)nn1CC(=O)N1CCc2cc(C(=O)NO)ccc2C1` [Compound 37, N-hydroxy-2-{[5-methyl-3-(trifluoromethyl)-1H-pyrazol-1-yl]acetyl}-1,2,3,4-tetrahydroisoquinoline-6-carboxamide] was run?
Answer: Its IC50 is 100 to 500 nM.

Question: How did the IC50 turn out when `C[C@H](C(=O)N1CCc2cc(C(=O)NO)ccc2C1)c1ccccc1` [Compound 29, N-hydroxy-2-[(2S)-2-phenylpropanoyl]-1,2,3,4-tetrahydroisoquinoline-6-carboxamide] was run?
Answer: Its IC50 is 50 to 100 nM.

Question: `O=C(NO)c1ccc2c(c1)CCCN(C(=O)c1c(F)cc(F)cc1F)C2` [Compound 241, N-hydroxy-2-(2,4,6-trifluorobenzoyl)-2,3,4,5-tetrahydro-1H-2-benzazepine-7-carboxamide] was tested. Which IC50 did it give?
Answer: Its IC50 is 100 to 500 nM.

Question: Which IC50 does the source give for `O=C(NO)c1ccc2c(c1)CCCN(C(=O)c1ccc3occc3c1)C2` [Compound 252, 2-(1-benzofuran-5-ylcarbonyl)-N-hydroxy-2,3,4,5-tetrahydro-1H-2-benzazepine-7-carboxamide] here?
Answer: Its IC50 is 100 to 500 nM.

Question: Which IC50 does the source give for `O=C(NO)c1ccc2c(c1)CCN(Cc1nccn1Cc1ccccc1)C2` [Compound 74, 2-[(1-benzyl-1H-imidazol-2-yl)methyl]-N-hydroxy-1,2,3,4-tetrahydroisoquinoline-6-carboxamide] here?
Answer: Its IC50 is over 500 nM.

Question: For `Cc1n[nH]c(C)c1S(=O)(=O)N1CCc2cc(C(=O)NO)ccc2C1` [Compound 54, 2-[(3,5-dimethyl-1H-pyrazol-4-yl)sulfonyl]-N-hydroxy-1,2,3,4-tetrahydroisoquinoline-6-carboxamide], which IC50 is on record?
Answer: The IC50 was 50 to 100 nM.

Question: How did the IC50 turn out when `Cc1noc(C)c1S(=O)(=O)N1CCc2cc(C(=O)NO)ccc2C1` [Compound 53, 2-[(3,5-dimethylisoxazol-4-yl)sulfonyl]-N-hydroxy-1,2,3,4-tetrahydroisoquinoline-6-carboxamide] was run?
Answer: The IC50 was 100 to 500 nM.

Question: `O=C(NO)c1ccc2c(c1)CCN(C(=O)C1CCCCCC1)C2` [Compound 22, 2-(cycloheptylcarbonyl)-N-hydroxy-1,2,3,4-tetrahydroisoquinoline-6-carboxamide] was tested. Which IC50 did it give?
Answer: The IC50 was 50 to 100 nM.

Question: Which IC50 does the source give for `CC(C)CC(=O)N1CCc2cc(C(=O)NO)ccc2C1` [Compound 9, N-hydroxy-2-(3-methylbutanoyl)-1,2,3,4-tetrahydroisoquinoline-6-carboxamide] here?
Answer: The IC50 was 50 to 100 nM.

Question: With `O=C(NO)c1ccc2c(c1)CCCN(C(=O)Cc1csc3ccc(Cl)cc13)C2` [Compound 251, 2-[(5-chloro-1-benzothien-3-yl)acetyl]-N-hydroxy-2,3,4,5-tetrahydro-1H-2-benzazepine-7-carboxamide] as the molecule, how does the IC50 read?
Answer: The IC50 was 100 to 500 nM.

Question: With `O=C(NO)c1ccc2c(c1)CCN(Cc1cccc3nsnc13)C2` [Compound 69, 2-(2,1,3-benzothiadiazol-4-ylmethyl)-N-hydroxy-1,2,3,4-tetrahydroisoquinoline-6-carboxamide] as the molecule, how does the IC50 read?
Answer: Its IC50 is 100 to 500 nM.

Question: With `CC(NC(=O)N1CCc2cc(C(=O)NO)ccc2C1)c1cccc2ccccc12` (stereo not shown) [Compound 103, N^6-hydroxy-N^2-[1-(1-naphthyl)ethyl]-3,4-dihydroisoquinoline-2,6(1H)-dicarboxamide] as the molecule, how does the IC50 read?
Answer: Its IC50 is under 50 nM.

Question: With `O=C(NO)c1ccc2c(c1)CCN(C(=O)CCn1ccc3ccccc31)C2` [Compound 13, N-hydroxy-2-[3-(1H-indol-1-yl)propanoyl]-1,2,3,4-tetrahydroisoquinoline-6-carboxamide] as the molecule, how does the IC50 read?
Answer: Its IC50 is over 500 nM.

Question: Which IC50 does the source give for `CC(C)(C)C(=O)N1CCc2ccc(C(=O)NO)cc2CC1` [Compound 85, 3-(2,2-dimethylpropanoyl)-N-hydroxy-2,3,4,5-tetrahydro-1H-3-benzazepine-7-carboxamide] here?
Answer: The IC50 was 100 to 500 nM.

Question: With `O=C(NO)c1ccc2c(c1)CCN(Cc1cccc(OC(F)(F)F)c1)C2` [Compound 109, N-hydroxy-2-[3-(trifluoromethoxy)benzyl]-1,2,3,4-tetrahydroisoquinoline-6-carboxamide] as the molecule, how does the IC50 read?
Answer: Its IC50 is 100 to 500 nM.

Question: For `O=C(NO)c1ccc2c(c1)CCCN(C(=O)c1ccc(C(F)(F)F)cc1)C2` [Compound 84, N-hydroxy-2-[4-(trifluoromethyl)benzoyl]-2,3,4,5-tetrahydro-1H-2-benzazepine-7-carboxamide], which IC50 is on record?
Answer: The IC50 was over 500 nM.

Question: For `O=C(NO)c1ccc2c(c1)CCN(C(=O)Cc1ccc(-c3ccccc3)cc1)C2` [Compound 30, 2-(biphenyl-4-ylacetyl)-N-hydroxy-1,2,3,4-tetrahydroisoquinoline-6-carboxamide], which IC50 is on record?
Answer: The IC50 was under 50 nM.

Question: `O=C(NO)c1ccc2c(c1)CCN(C(=O)COc1ccccc1)C2` [Compound 21, N-hydroxy-2-(phenoxyacetyl)-1,2,3,4-tetrahydroisoquinoline-6-carboxamide] was tested. Which IC50 did it give?
Answer: The IC50 was 50 to 100 nM.

Question: How did the IC50 turn out when `O=C(NO)c1ccc2c(c1)CCN(C(=O)Nc1ccc3c(c1)OCO3)C2` [Compound 90, N^2-1,3-benzodioxol-5-yl-N^6-hydroxy-3,4-dihydroisoquinoline-2,6(1H)-dicarboxamide] was run?
Answer: Its IC50 is under 50 nM.

Question: How did the IC50 turn out when `CC(=O)Nc1cc(NC(C)=O)cc(C(=O)N2CCCc3cc(C(=O)NO)ccc3C2)c1` [Compound 256, 2-[3,5-bis(acetylamino)benzoyl]-N-hydroxy-2,3,4,5-tetrahydro-1H-2-benzazepine-7-carboxamide] was run?
Answer: Its IC50 is 100 to 500 nM.

Question: Which IC50 does the source give for `O=C(NO)c1ccc2c(c1)CCN(C(=O)NC1CCCCC1)C2` [Compound 101, N^2-cyclohexyl-N^6-hydroxy-3,4-dihydroisoquinoline-2,6(1H)-dicarboxamide] here?
Answer: The IC50 was under 50 nM.

Question: How did the IC50 turn out when `Cn1cccc1C(=O)N1CCc2cc(C(=O)NO)ccc2C1` [Compound 1, N-hydroxy-2-[(1-methyl-1H-pyrrol-2-yl)carbonyl]-1,2,3,4-tetrahydroisoquinoline-6-carboxamide] was run?
Answer: The IC50 was under 50 nM.

Question: Which IC50 does the source give for `O=C(NO)c1ccc2c(c1)CCN(C(=O)CC1CC1)C2` [Compound 106, 2-(cyclopropylacetyl)-N-hydroxy-1,2,3,4-tetrahydroisoquinoline-6-carboxamide] here?
Answer: The IC50 was 100 to 500 nM.

Question: Which IC50 does the source give for `O=C(NO)c1ccc2c(c1)CCN(C/C=C/c1ccccc1)C2` [Compound 64, N-hydroxy-2-[(2E)-3-phenylprop-2-en-1-yl]-1,2,3,4-tetrahydroisoquinoline-6-carboxamide] here?
Answer: Its IC50 is 100 to 500 nM.

Question: `Cc1cc(C(=O)N2CCCc3cc(C(=O)NO)ccc3C2)no1` [Compound 245, N-hydroxy-2-[(5-methylisoxazol-3-yl)carbonyl]-2,3,4,5-tetrahydro-1H-2-benzazepine-7-carboxamide] was tested. Which IC50 did it give?
Answer: The IC50 was 100 to 500 nM.

Question: Which IC50 does the source give for `O=C(NO)c1ccc2c(c1)CCCN(C(=O)c1cnc3ccccc3c1)C2` [Compound 255, N-hydroxy-2-(quinolin-3-ylcarbonyl)-2,3,4,5-tetrahydro-1H-2-benzazepine-7-carboxamide] here?
Answer: The IC50 was 100 to 500 nM.
